Source: US20230271983A1, “FUNCTIONALIZED ISONITRILES AND PRODUCTS, PREPARATION AND USES THEREOF” (UNIVERSIDADE DE SANTIAGO DE COMPOSTELA, priority 2020, published 2023)

Columns and labels:
[1] = target: T1, human A3AR (Homo sapiens, UniProt P0DMS8); test: A3AR radioligand competition binding, [3H]NECA, HeLa cell membranes; details: for Ki: 10 nM [3H]NECA, 25° C. 180 min, read-out: A3 Ki; for inhibition at 1 µM: read-out: A3 specific binding inhibition percentage
T1 construct: expressed in transfected cells; host or cells: HeLa
T1 sequence (P0DMS8 1-318): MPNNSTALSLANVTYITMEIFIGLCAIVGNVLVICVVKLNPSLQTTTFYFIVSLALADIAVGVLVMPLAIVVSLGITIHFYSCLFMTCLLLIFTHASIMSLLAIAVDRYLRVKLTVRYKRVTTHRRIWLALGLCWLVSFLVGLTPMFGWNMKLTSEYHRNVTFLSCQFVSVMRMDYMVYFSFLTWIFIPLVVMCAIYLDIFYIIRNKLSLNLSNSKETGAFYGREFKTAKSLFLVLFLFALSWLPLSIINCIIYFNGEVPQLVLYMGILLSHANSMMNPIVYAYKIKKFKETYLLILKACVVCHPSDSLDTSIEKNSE
Text: (§1) was evaluate in vitro using radioligand binding assays following a previously described protocol (J. Med. Chem. 2019, 62, 9315-9330). Human ARs were expressed in transfected cell lines [e.g. chinese hamster ovary (CHO) cells (A1AR), human epithelial carcinoma (HeLa) cells (A2AAR and A3AR) and human embryonic kidney (HEK-293) cells (A2BAR)]. [^3H]DPCPX for A1AR and A2BAR, [^3H]NECA for A3AR, and [^3H]ZM241385 for A2AAR were employed as radioligands. […] Using Prism 5.0 software (GraphPad, San Diego, Calif.) K; values were acquired by fitting the data by non-linear regression. Results are the average of three experiments, each of them performed in duplicate. Radioligand binding competition assays were performed in vitro using human ARs expressed in transfected HeLa [hA2AAR (9 pmol/mg protein) and hA3AR (3 pmol/mg protein)], HEK-293 [hA2BAR (1.5 pmol/mg protein)] and CHO [hA1AR (1.5 pmol/mg protein)] cells. A brief description is given below. A1AR competition binding experiments were carried out in membranes from CHO-A, cells labelled with 1 nM [^3H]DPCPX (KD=0.7 nM). Non-specific binding was determined in the presence of 10 μM R-PIA. The reaction mixture was incubated at 25° C. for 60 min. A2AAR competition binding experiments were carried out in membranes from HeLa-A2A cells labelled with 3 nM [^3H]ZM241385 (KD=2 nM). Non-specific binding was determined in the presence of 50 μM NECA. The reaction mixture was incubated at 25° C. for 30 min. […] Non-specific binding was determined in the presence of 400 μM NECA. The reaction mixture was incubated at 25° C. for 30 min. A3AR competition binding experiments were carried out in membranes from HeLa-A3 cells labelled with 10 nM [^3H]NECA (KD=8.7 nM). Non-specific binding was determined in the presence of 100 μM R-PIA. The reaction mixture was incubated at 25° C. for 180 min. After the incubation time, membranes were washed and filtered, radioactivity was detected in a Microbeta Trilux reader (PerkinElmer).
(§2) The adenosinergic (affinity and selectivity) profile of several compounds of the invention was evaluated according to the above examples.

[2] = target: T2, Dopamine D2 receptor (Homo sapiens, UniProt P14416); test: Dopamine D2 receptor competition binding, [3H]-Spiperone, CHO-D2 membranes; details: 0.15 nM [3H]-Spiperone
T2 construct: expressed in transfected cells; host or cells: CHO-D2 #S20 (membranes prepared in Biofarma laboratory)
T2 sequence (P14416 whole entry, species assumed): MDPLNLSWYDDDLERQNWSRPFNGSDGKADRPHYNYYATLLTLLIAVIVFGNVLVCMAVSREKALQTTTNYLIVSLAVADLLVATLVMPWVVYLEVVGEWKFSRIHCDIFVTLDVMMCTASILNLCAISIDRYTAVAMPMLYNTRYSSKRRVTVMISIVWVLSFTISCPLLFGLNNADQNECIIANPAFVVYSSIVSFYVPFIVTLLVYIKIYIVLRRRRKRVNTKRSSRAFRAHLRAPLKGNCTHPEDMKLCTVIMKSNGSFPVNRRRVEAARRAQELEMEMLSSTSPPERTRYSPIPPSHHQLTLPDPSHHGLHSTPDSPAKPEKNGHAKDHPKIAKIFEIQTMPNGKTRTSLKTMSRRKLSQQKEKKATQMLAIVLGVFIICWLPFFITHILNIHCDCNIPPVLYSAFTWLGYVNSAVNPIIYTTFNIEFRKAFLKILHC
Procedure: (§3) was evaluated in vitro using radioligand binding assays following a previously described protocol (J. Med. Chem., 2020, 63, 613-620, Eur. J. Med. Chem., 2019, 180, 673-689). Dopamine D2 receptor competition binding experiments were carried out in a polypropilene 96-well plate. In each well was incubated 10 μg of membranes from CHO-D2 #S20 cell line prepared in Biofarma laboratory (Lot: A002/22-07-2015, protein concentration=4185 μg/ml), 0.15 nM [3H]-Spiperone (80.2 Ci/mmol, 1 mCi/ml, Perkin Elmer NET1187001MC) and compounds studied and standard. Non-specific binding was determined in the presence of Sulpiride 10 μM (Sigma S112). The reaction mixture (Vt: 250 μl/well) was incubated at 25° C. for 120 min, 200 μL was transferred to GF/C 96-well plate (Millipore, Madrid, Spain) pretreated with 0.5% of PEI and treated with binding buffer (Tris-HCl 50 mM, EDTA 1 mM, MgCl2 5 mM, KCl 5 mM, NaCl 120 mM, pH=7.4), after was filtered and washed four times with 250 μl wash buffer (Tris-HCl 50 mM, NaCl 0.9%, pH=7.4), before measuring in a microplate beta scintillation counter (Microbeta Trilux, PerkinElmer). Dopamine D3 receptor competition binding experiments were carried out in a polypropilene 96-well plate. In each well was incubated 2 μg of membranes from D3 cell line (Perkin Elmer, ES-173M400UA, protein concentration=1000 μg/ml), 1 nM [3H]-Spiperone (68 Ci/mmol, 1 mCi/ml, Perkin Elmer NET1187001MC) and compounds studied and standard. Non-specific binding was determined in the presence of Haloperidol 1 μM (Sigma H1512). The reaction mixture (Vt: 250 μl/well) was incubated at 25° C. for 60 min, 200 μL was transferred to GF/C 96-well plate (Millipore, Madrid, Spain) pretreated with 0.5% of PEI and treated with binding buffer (Tris-HCl 50 mM, MgCl2 5 mM, pH=7.4), after was filtered and washed four times with 250 μl wash buffer (Tris-HCl 50 mM, pH=7.4), before measuring in a microplate beta scintillation counter (Microbeta Trilux, PerkinElmer, Madrid, Spain).

[3] = target: T3, Dopamine D3 receptor (Homo sapiens, UniProt P35462); test: Dopamine D3 receptor competition binding, [3H]-Spiperone; details: 1 nM [3H]-Spiperone
T3 construct: purchased Perkin Elmer ES-173M400UA
T3 sequence (P35462 whole entry): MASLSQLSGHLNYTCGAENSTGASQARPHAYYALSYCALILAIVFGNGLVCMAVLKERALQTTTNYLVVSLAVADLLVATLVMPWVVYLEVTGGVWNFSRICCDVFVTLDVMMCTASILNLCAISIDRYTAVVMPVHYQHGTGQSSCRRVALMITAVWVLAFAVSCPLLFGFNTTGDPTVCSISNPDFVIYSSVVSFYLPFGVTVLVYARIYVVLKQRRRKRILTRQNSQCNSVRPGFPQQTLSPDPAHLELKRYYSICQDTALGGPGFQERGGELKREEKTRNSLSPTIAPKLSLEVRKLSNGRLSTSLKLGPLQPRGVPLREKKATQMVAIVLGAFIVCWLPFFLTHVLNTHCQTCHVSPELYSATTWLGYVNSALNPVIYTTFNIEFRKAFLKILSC
Procedure: as §3

[4] = target: T4, human A1AR (Homo sapiens, UniProt P30542); test: A1AR radioligand competition binding, [3H]DPCPX, CHO cell membranes; details: for inhibition at 1 µM: read-out: A1 specific binding inhibition percentage; for Ki: 1 nM [3H]DPCPX, 25° C. 60 min, read-out: A1 Ki
T4 construct: expressed in transfected cells; host or cells: CHO
T4 sequence (P30542 1-326): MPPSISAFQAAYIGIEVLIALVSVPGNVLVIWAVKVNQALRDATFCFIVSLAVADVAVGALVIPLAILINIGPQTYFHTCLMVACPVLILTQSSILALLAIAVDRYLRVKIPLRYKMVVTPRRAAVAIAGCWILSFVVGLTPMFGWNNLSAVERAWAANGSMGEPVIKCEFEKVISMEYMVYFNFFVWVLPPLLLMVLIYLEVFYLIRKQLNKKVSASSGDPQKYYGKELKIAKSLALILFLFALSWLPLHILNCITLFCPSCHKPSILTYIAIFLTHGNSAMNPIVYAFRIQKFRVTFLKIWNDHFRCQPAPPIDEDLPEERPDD
Text: as §1, §2

[5] = target: T5, human A2AAR (Homo sapiens, UniProt P29274); test: A2AAR radioligand competition binding, [3H]ZM241385, HeLa cell membranes; details: for inhibition at 1 µM: read-out: A2A specific binding inhibition percentage; for Ki: 3 nM [3H]ZM241385, 25° C. 30 min, read-out: A2A Ki
T5 construct: expressed in transfected cells; host or cells: HeLa
T5 sequence (P29274 whole entry): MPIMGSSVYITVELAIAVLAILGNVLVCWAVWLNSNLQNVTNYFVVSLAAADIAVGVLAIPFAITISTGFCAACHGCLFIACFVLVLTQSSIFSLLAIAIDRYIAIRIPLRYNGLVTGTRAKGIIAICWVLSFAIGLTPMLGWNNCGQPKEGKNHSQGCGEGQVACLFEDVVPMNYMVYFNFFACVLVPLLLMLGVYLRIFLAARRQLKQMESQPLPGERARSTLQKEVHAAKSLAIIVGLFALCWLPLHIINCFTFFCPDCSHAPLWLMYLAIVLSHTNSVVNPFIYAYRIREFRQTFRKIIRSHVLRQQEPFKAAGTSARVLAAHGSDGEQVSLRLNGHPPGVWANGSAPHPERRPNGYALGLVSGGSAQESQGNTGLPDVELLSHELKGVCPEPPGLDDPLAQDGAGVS
Text: as §1, §2

[6] = target: T6, human A2BAR (Homo sapiens, UniProt P29275); test: A2BAR radioligand competition binding, [3H]DPCPX, HEK-293 cell membranes; details: for inhibition at 1 µM: read-out: A2B specific binding inhibition percentage; for Ki: 25 nM [3H]DPCPX, 25° C. 30 min, read-out: A2B Ki
T6 construct: host or cells: HEK-293
T6 sequence (P29275 1-332): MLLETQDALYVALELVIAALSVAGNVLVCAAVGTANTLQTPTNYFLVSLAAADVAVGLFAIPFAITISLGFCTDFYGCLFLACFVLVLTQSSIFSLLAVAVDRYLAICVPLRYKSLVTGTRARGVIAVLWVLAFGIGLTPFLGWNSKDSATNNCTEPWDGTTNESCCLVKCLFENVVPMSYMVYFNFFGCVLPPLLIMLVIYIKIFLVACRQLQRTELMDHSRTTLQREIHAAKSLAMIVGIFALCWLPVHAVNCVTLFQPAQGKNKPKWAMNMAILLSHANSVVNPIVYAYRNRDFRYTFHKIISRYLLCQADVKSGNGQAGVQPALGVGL
Text: as §1, §2

[7] = target: T7, D4 (Homo sapiens, UniProt P21917); test: Dopamine D4 radioligand binding
T7 sequence (P21917 1-419): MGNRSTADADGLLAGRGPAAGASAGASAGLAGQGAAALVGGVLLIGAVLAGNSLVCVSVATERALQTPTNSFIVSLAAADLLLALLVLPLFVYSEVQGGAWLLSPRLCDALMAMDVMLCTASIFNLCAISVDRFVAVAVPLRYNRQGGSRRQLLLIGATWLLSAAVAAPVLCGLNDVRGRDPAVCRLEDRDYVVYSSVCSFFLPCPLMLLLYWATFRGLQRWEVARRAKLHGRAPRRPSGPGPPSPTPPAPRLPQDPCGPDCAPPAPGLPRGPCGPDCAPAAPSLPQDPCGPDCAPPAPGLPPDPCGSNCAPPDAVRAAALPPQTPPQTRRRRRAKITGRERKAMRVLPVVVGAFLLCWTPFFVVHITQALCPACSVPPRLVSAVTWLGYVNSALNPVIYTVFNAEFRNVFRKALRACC

| Ki [1] | Ki [2] | Ki [3] | inhibition at 1 µM [5] | Ki [6] | Structure (SMILES) | inhibition at 1 µM [4] | inhibition at 1 µM [6] | inhibition at 1 µM [1] | also measured |
| --- | --- | --- | --- | --- | --- | --- | --- | --- | --- |
| 6.13 nM |  |  |  |  | COc1ccc(-c2cc(NC(=O)CCC(=O)N(C)CC(=O)NCCCOCCOCCOCCCNC(=O)CN(C)C(=O)COc3ccc(-c4ccc5n4[B-](F)(F)[N+]4=C(c6cccs6)C=CC4=C5)cc3)nc(-c3ccc(OC)cc3)n2)cc1 |  |  |  |  |
|  | 1.06 nM | 148 nM |  |  | CN(CC(=O)NCCCOCCOCCOCCCNC(=O)CN(C)C(=O)COc1ccc(-c2ccc3n2[B-](F)(F)[N+]2=C(c4cccs4)C=CC2=C3)cc1)C(=O)CCC(=O)Nc1ccc(CCN2CN(c3ccccc3)C3(CCN(CCCC(=O)c4ccc(F)cc4)CC3)C2=O)cc1 |  |  |  |  |
| 10 nM | 30 nM | 2600 nM | 5% |  | COc1ccc(-c2cc(NC(=O)COCC(=O)N(C)CC(=O)NCCOCCOCCOCCOCCNC(=O)CN(C)C(=O)CCCOc3ccc(CN4CCN(c5ccccc5OC)CC4)cc3OC)nc(-c3ccc(OC)cc3)n2)cc1 | 8% | 4% |  |  |
| 195 nM |  |  | 13% | 78.6 nM | [C-]#[N+]CCCOCCOCCOCCCNC(=O)CN1CCN(C(=O)CNC(=O)COc2ccc(-c3cc4c([nH]3)c(=O)n(CCC)c(=O)n4C)cc2)CC1 |  |  |  | Ki [4]: 101 nM |
|  | 1.1 nM | 1 nM |  |  | [C-]#[N+]CCCOCCOCCOCCCNC(=O)CN(C)C(=O)/C=C/c1ccc2sc(C(=O)NCCCCN3CCN(c4cccc(Cl)c4Cl)CC3)cc2c1 |  |  |  | Ki [7]: 500 nM |
| 42.7 nM |  |  | 23% | 39.6 nM | CCCn1c(=O)c2[nH]c(-c3ccc(OCC(=O)NCC(=O)N4CCN(CC(=O)NCCCOCCOCCOCCCNC(=O)CN(C)C(=O)COc5ccc(C6=[N+]7C(=Cc8ccc(-c9cccs9)n8[B-]7(F)F)C=C6)cc5)CC4)cc3)cc2n(C)c1=O |  |  |  | Ki [4]: 471 nM |
|  |  |  |  |  | CN(CC(=O)NCCOCCOCCNC(=O)CN(C)C(=O)CC(C)(C)CC(=O)Nc1c(F)cc(C(=O)Nc2nccs2)cc1F)C(=O)CCCCCN1/C(=C/C=C/C=C/C2=[N+](C)c3ccccc3C2(C)C)C(C)(C)c2ccccc21 | 33% | 59% | 54% | Ki [5]: 420 nM |
|  |  |  |  |  | CN(CC(=O)NCCCOCCOCCOCCCNC(=O)CN(C)C(=O)CC(C)(C)CC(=O)Nc1c(F)cc(C(=O)Nc2nccs2)cc1F)C(=O)CCCCCN1/C(=C/C=C/C=C/C2=[N+](C)c3ccccc3C2(C)C)C(C)(C)c2ccccc21 | 31% | 18% | 37% | Ki [5]: 8.35 nM |

| Structure (SMILES) | Ki [1] | Ki [2] | Ki [3] | inhibition at 1 µM [5] | Ki [6] | inhibition at 1 µM [4] | inhibition at 1 µM [6] | inhibition at 1 µM [1] | also measured |
| --- | --- | --- | --- | --- | --- | --- | --- | --- | --- |
| CCCn1c(=O)c2[nH]c(-c3ccc(OCC(=O)NCC(=O)N4CCN(C(C)(C)C(=O)NCCCOCCOCCOCCCNC(=O)CN(C)C(=O)COc5ccc(C6=[N+]7C(=Cc8ccc(-c9cccs9)n8[B-]7(F)F)C=C6)cc5)CC4)cc3)cc2n(C)c1=O |  |  |  | 1% | 250 nM | 46% |  | 37% |  |
